Measurements: patent publication US20200045956A1, “POLYPEPTIDE SPERM STABILISER FOR SEMEN USED IN ARTIFICIAL INSEMINATION” (UNIVERSIDAD DE LA FRONTERA, priority 2017, published 2020)

Tested on: porcine spermatozoa
Test: Progressive motility / viability of gametes incubated in fertilizing solution with FB-sp (CASA method, optical microscopy)
Assay type: cell-based
Experimental: A test of the progressive motility of gametes incubated in fertilizing solution added with the FB-sp bio-stabiliser polypeptide was performed. Progressive gametes are spermatozoa that have normal mobility capacity and are suitable for fertilizing.
It can be seen that the incubation of spermatozoa of porcine boars with FB-sp (●) (10 μM) preserves progressive motility up to 85% of spermatozoa for a period of 7 days, while the control (▪) without stabiliser decreases to a value of 70% on day 7, the difference increases over the days.

In the case of “RPGLPVFSPL (Spermatic biostabilizer FB-sp) [polypeptide sperm stabiliser of 10 amino acids: Arg, Pro, Gly, Leu, Pro, Val, Phe, Ser, Pro, Leu]”, the “progressive motility of spermatozoa preserved” value (FB-sp 10 μM, 17° C., period of 7 days, porcine boar spermatozoa) is reported as “up to 85%” and the survival (extender with FB-sp added, after 7 days) is reported as “over 65%”.
